# Read-outs that look alike come from different tables or passages of the source.
# Experiments:
# DENV-2 viral replicon = assay: microbe, parasite or virus in culture; type: cell-based; settings: for EC50: Dengue virus
# Method: Compounds were evaluated for antiviral properties using BHK cells containing a DENV-2 viral replicon. 1.5 × 10^3 replicon-containing cells per well were plated in white opaque 96-well plates in the absence of antibiotic selection and the next day, compounds dissolved in DMSO were added to triplicate wells in culture medium. The compounds were initially tested at 10 and 50 μM final concentrations and each plate also contained DMSO alone, medium alone, and 6. Three days later, medium was replaced with a 1:1000 dilution of ViVi-Ren Live Cell Substrate (Promega) in DME minus phenol red and 10% FBS. Luminescence was measured with a Molecular Devices M5e plate reader. Mean values of triplicate wells were determined and compared to the mean value for the wells that received DMSO alone. […] The EC50 was determined by comparing luciferase activity for eight serial dilutions of the compound and DMSO treated cells using GraphPad Prism software.
# [1] = Cell viability assay (MTS) in DENV replicon cells; type: cell-based, baby hamster; settings: hamster, DENV replicon cells (BHK pD2-hRucPac-2ATG30), DENV replicon BHK cells, MTS, 72 h
# [2] = tested on: DENV replicon cells (BHK pD2-hRucPac-2ATG30); assay: Cell viability assay (MTS) in DENV replicon cells; type: cell-based, baby hamster
# DENV-2 [3] = assay: Titer reduction assay in Huh-7 cells, plaque assay on Vero cells; type: cell-based, DENV-2 New Guinea C strain; settings: Dengue virus, DENV2, m.o.i. 0.2, 72 h
# Method: (§1) Huh-7 cells were seeded in 12-well plates at a density of 4×10^5 cells per well in 1 mL culture medium. The next day, cells were washed and inoculated with DENV at a multiplicity of infection (m.o.i.) of 0.2 in 500μl infection medium (MEM containing 2% FBS and 10 mM HEPES). The inoculum was removed after 1h, cells were washed with PBS and then incubated in 1 mL MEM, 2% FBS, 1% pen/strep plus compound for 72 h. Viral supernatants were clarified by centrifugation for 5 min at 1500×g and aliquoted and stored at -80°C. Viral titers were determined using a plaque assay on Vero cells. Briefly, confluent Vero cell monolayers in 24-well plates were incubated at 37°C for 1 h with duplicate 300 μl samples of 10-fold serial dilutions of viral supernatants. The cells were then washed to remove unbound viral particles and overlaid with 500ul MEM containing 1.3% methylcellulose, 5% FBS and 10mM HEPES. After 5 days of incubation at 37°C and 5% CO2, cells were washed with PBS, fixed, and stained using 1% Giemsa. Infectious virus titer (pfu/mL) was determined using the following formula: number of plaques × dilution factor × (1/inoculation volume). The viral titer was presented as the mean of duplicate samples from a dilution yielding approximately 20–50 plaques per well.
# DENV-2 [4] = assay: Sequence analysis of prM/E region clones from passaged virus (mutation frequency); type: cell-based, DENV-2 New Guinea C strain
# Method: For qPCR determination of viral genome copy number, viral RNA was isolated from 140 μL of drug-treated or DMSO-treated infected culture supernatant using QIAamp Viral RNA mini kit (Qiagen), following manufacturer’s protocol. Viral RNA was quantified using the TaqMan RNA-to-CT 1-Step qPCR Kit (Applied Biosystems). Primers used for qPCR were 5’-[…]-3’ (forward) and 5’-[…]-3’ (reverse) amplifying a region numbering 8928–8988 in the genome (numbering starting from the beginning of genome, accession number KM204118). The qPCR FAM probe sequence is 5’-[…]-3’. Serial 10-fold dilutions of plasmid containing the NS5 gene of DENV were used to generate a standard curve for the quantification of viral RNA genome copy number based on cycle threshold (CT) values. The limit of detection for NS5 plasmid dilutions was 30 copies (S1 Fig). […] Statistical analysis via GraphPad Prism 5 software. To obtain sequence data from viral RNA isolated at each passage, cDNA was generated via M-MLV reverse transcriptase and random hexamers (New England Biolab Inc.) per manufacturer’s instructions. An approximately 1600-base fragment covering membrane protein (prM) and envelop protein gene (E) of DENV-2 viral genome was amplified using PfuUltra II Fusion HS DNA polymerase (Agilent) with primers prMEfor (5'- […]-3') and prMErev (5'- […] -3'). PCR products were purified using Qiaquick PCR purification kit (Qiagen) and then digested with EcoRI and ligated into pcDNA3.1 for sequencing. Sequence for approximately 40–50 individual clones per sample was obtained from the University of Minnesota Genomics Center. Sequences were aligned over a 980-base region that had adequate quality sequencing reads for all clones. Only mutations present in both the forward and reverse reads of a clone were counted. All incidence-based determinants of mutation frequency (Mf min, Mf max, Mfe) were calculated as described.
# Virus was passaged on Huh-7 cells supplemented with 200 μM 3a, 500 μM 3b or DMSO (0.5%). Huh-7 cells were seeded in 12-well plates and inoculated with DENV-2 as described for Titer reduction experiments above except an m.o.i. of 0.01 was used. After 3 days of compound treatment, 50 μL of the harvested supernatant was used to inoculate fresh Huh-7 cells in the continued presence of compound. The virus titer in the harvested supernatant was determined by plating ten-fold serial dilutions onto single wells of a 24-well plate. The wells were washed and overlaid as described in the Titer reduction assay above. If no plaques were obtained in any of the harvested supernatant dilutions, the undiluted supernatant was used. If plaques were not detectable, the virus titer was considered to be at the limit of detection, 1 plaque (3.3 pfu/mL). Supernatant titer was determined from a single well where there were approximately 20–50 plaques when possible. This experiment was repeated three times at the compound concentrations listed.
# DENV-2 [5] = assay: Virus passage in presence of compound, supernatant titer by plaque assay; type: cell-based, DENV-2 New Guinea C strain; settings: 3a 200 μM, Huh-7, passages 5 and 6; limit of detection 3.3 pfu/mL
# Method: as §1, with “After 5 days of incubation at 37°C and 5% CO2, cells were washed with PBS, fixed, and stained using 1% Giemsa.” left out, “The viral titer was presented as the mean of duplicate samples from a dilution yielding approximately 20–50 plaques per well.” left out
# (§2) Virus was passaged on Huh-7 cells supplemented with 200 μM 3a, 500 μM 3b or DMSO (0.5%). […] The virus titer in the harvested supernatant was determined by plating ten-fold serial dilutions onto single wells of a 24-well plate. […] Supernatant titer was determined from a single well where there were approximately 20–50 plaques when possible. […]
# [6] = Cell viability assay (MTS) in Huh-7 cells; type: cell-based; settings: human
# Method: The sensitivity of the cell lines to the compounds was examined using the 3-(4,5-dimethylthiazol-2-yl)-5-(3-carboxymethoxyphenyl)-2-(4-sulfophenyl)-2H-tetrazolium (MTS)-based tetrazolium reduction CellTiter 96 Aqueous Non-Radioactive cell proliferation assay (Promega G5430). The compounds were initially tested at 10 and 50 μM final concentrations. Each plate also contained DMSO alone, medium alone, and an inhibitory compound, 6. DENV replicon or Huh-7 cells were plated at a density of 1,500 or 8 × 10^3 cells, respectively, per well in 96-well plates containing 100 μl of culture medium overnight. Compounds were added to triplicate wells in culture medium and incubated for an additional 72 h. MTS reagent was then added to each well and incubated at 37°C in a humidified 5% CO2 atmosphere. The plates were read at various time points at a wavelength of 490 nm using a Molecular Devices M5e plate reader. Mean values of triplicate wells were determined and compared to the mean value for the wells that received DMSO alone. For compounds selected for dose-response experiments, the CC50 was determined by comparing cell viability for eight serial dilutions of the compound and DMSO treated cells using GraphPad Prism software.
# DENV-2 [7] = assay: Virus passage in presence of compound, genome copy number by RT-qPCR (NS5); type: cell-based, DENV-2 New Guinea C strain; settings: 3a 200 μM, Huh-7, passage 6; limit of detection 30 copies
# Method: For qPCR determination of viral genome copy number, viral RNA was isolated from 140 μL of drug-treated or DMSO-treated infected culture supernatant using QIAamp Viral RNA mini kit (Qiagen), following manufacturer’s protocol. Viral RNA was quantified using the TaqMan RNA-to-CT 1-Step qPCR Kit (Applied Biosystems). Primers used for qPCR were 5’-[…]-3’ (forward) and 5’-[…]-3’ (reverse) amplifying a region numbering 8928–8988 in the genome (numbering starting from the beginning of genome, accession number KM204118). The qPCR FAM probe sequence is 5’-[…]-3’. Serial 10-fold dilutions of plasmid containing the NS5 gene of DENV were used to generate a standard curve for the quantification of viral RNA genome copy number based on cycle threshold (CT) values. […] Sequences were aligned over a 980-base region that had adequate quality sequencing reads for all clones. Only mutations present in both the forward and reverse reads of a clone were counted. All incidence-based determinants of mutation frequency (Mf min, Mf max, Mfe) were calculated as described.
# as §2
# [8] = DENV2, 72 h, DENV replicon BHK cells, luciferase, 3 days, read-out: EC50
# [9] = passage 2, 3a 200 μM, 3b 500 μM, Huh-7
# [10] = passage 3, 3a 200 μM, 3b 500 μM, Huh-7
smiles,measurement,setting,value
"NC(=O)c1nc[nH]n1 [Compound 1a, 1,2,4-Triazole-3-carboxamide]",EC50,"DENV-2 viral replicon; DENV2, BHK, 72 h",4.9 ± 1.6 µM
same,CC50 at 72 h,[1],> 1000 µM
same,CC50,"[2]; DENV replicon BHK cells, MTS, 72 h",> 665 µM
same,cytotoxicity,"[2]; at 1000 μM, DENV replicon cells",did not show cytotoxicity
"NC(=O)c1ncn([C@@H]2O[C@H](CO)[C@@H](O)[C@H]2O)n1 [Compound 1b, ribavirin, reference compound]",CC50 at 72 h,[1],20 µM
"NC(=O)c1nc[nH]c1O [Compound 2a, 5-Hydroxy-1H-imidazole-4-carboxamide]",EC50,DENV-2 viral replicon; [8],2.4 µM
same,CC50 at 72 h,[1],23 ± 4.2 µM
"NC(=O)c1ncn([C@@H]2O[C@H](CO)[C@@H](O)[C@H]2O)c1O [Compound 2b, mizoribine, reference compound]",EC50,DENV-2 viral replicon; [8],15 µM
same,CC50 at 72 h,[1],33 ± 12 µM
"NC(=O)c1nccnc1O [Compound 3a, 3-Hydroxy-2-pyrazinecarboxamide]",EC50,DENV-2 [3],20 ± 11 µM
same,number of mutations per clone compared to DMSO,"DENV-2 [4]; 3a 200 μM passage 4, 3b 500 μM passage 3, p < 0.0001, Mann-Whitney U",significant difference
same,Mf max (maximum mutation frequency),DENV-2 [4]; [9],"24.6 per 10,000 nucleotides"
same,Mf min (minimum mutation frequency),DENV-2 [4]; [9],"5.2 per 10,000 nucleotides"
same,Mfe (entity level mutation frequency),DENV-2 [4]; [9],2.5 ×10^−3
same,Number of clones with mutation/total,DENV-2 [4]; [9],26/36
same,Number of different mutations,DENV-2 [4]; [9],17
same,Number of haplotypes,DENV-2 [4]; [9],17
same,Number of total mutations,DENV-2 [4]; [9],80
same,"Transition A→G, number of mutations",DENV-2 [4]; [9],3
same,"Transition C→U, number of mutations",DENV-2 [4]; [9],4
same,"Transition G→A, number of mutations",DENV-2 [4]; [9],3
same,"Transition U→C, number of mutations",DENV-2 [4]; [9],1
same,"Transversion A→U, number of mutations",DENV-2 [4]; [9],1
same,"Transversion G→U, number of mutations",DENV-2 [4]; [9],2
same,"Transversion U→A, number of mutations",DENV-2 [4]; [9],2
same,"Transversion U→G, number of mutations",DENV-2 [4]; [9],1
same,Mf max (maximum mutation frequency),DENV-2 [4]; [10],"5.7 per 10,000 nucleotides"
same,Mf min (minimum mutation frequency),DENV-2 [4]; [10],"2.7 per 10,000 nucleotides"
same,Mfe (entity level mutation frequency),DENV-2 [4]; [10],1.4 ×10^−3
same,Number of clones with mutation/total,DENV-2 [4]; [10],12/37
same,Number of different mutations,DENV-2 [4]; [10],9
same,Number of haplotypes,DENV-2 [4]; [10],9
same,Number of total mutations,DENV-2 [4]; [10],19
same,"Transition C→U, number of mutations",DENV-2 [4]; [10],3
same,"Transition G→A, number of mutations",DENV-2 [4]; [10],3
same,"Transition U→C, number of mutations",DENV-2 [4]; [10],2
same,"Transversion G→U, number of mutations",DENV-2 [4]; [10],1
same,Mf max (maximum mutation frequency),"DENV-2 [4]; passage 4, 3a 200 μM, Huh-7","6.6 per 10,000 nucleotides"
same,Mf min (minimum mutation frequency),"DENV-2 [4]; passage 4, 3a 200 μM, Huh-7","3.9 per 10,000 nucleotides"
same,Mfe (entity level mutation frequency),"DENV-2 [4]; passage 4, 3a 200 μM, Huh-7",1.6 ×10^−3
same,Number of clones with mutation/total,"DENV-2 [4]; passage 4, 3a 200 μM, Huh-7",19/45
same,Number of different mutations,"DENV-2 [4]; passage 4, 3a 200 μM, Huh-7",16
same,Number of haplotypes,"DENV-2 [4]; passage 4, 3a 200 μM, Huh-7",15
same,Number of total mutations,"DENV-2 [4]; passage 4, 3a 200 μM, Huh-7",27
same,"Transition A→G, number of mutations","DENV-2 [4]; passage 4, 3a 200 μM, Huh-7",2
same,"Transition C→U, number of mutations","DENV-2 [4]; passage 4, 3a 200 μM, Huh-7",3
same,"Transition G→A, number of mutations","DENV-2 [4]; passage 4, 3a 200 μM, Huh-7",3
same,"Transition U→C, number of mutations","DENV-2 [4]; passage 4, 3a 200 μM, Huh-7",4
same,"Transversion C→A, number of mutations","DENV-2 [4]; passage 4, 3a 200 μM, Huh-7",2
same,"Transversion U→A, number of mutations","DENV-2 [4]; passage 4, 3a 200 μM, Huh-7",2
same,infectious virus in supernatant,DENV-2 [5],no infectious virus was detected
same,CC50 at 72 h,[6],> 1000 µM
same,times more active than nucleobase 5a (favipiravir),"DENV-2 viral replicon; DENV replicon cells, EC50 compared",5 times
same,genomic RNA in supernatant,DENV-2 [7],no genomic RNA was detected
same,CC50 at 72 h,[1],> 665 µM

# From publication PMC5929572, “Nucleobases and corresponding nucleosides display potent antiviral activities against dengue virus possibly through viral lethal mutagenesis” (PLoS Neglected Tropical Diseases, 2018)
